# Assay results from patent publication US20220226508A1, “METHODS AND COMPOSITIONS FOR TREATING EPILEPSY” (THE REGENTS OF THE UNIVERSITY OF CALIFORNIA, priority 2019, published 2022).
# Entries after “also recorded” stand apart in the source; their conditions may differ. Read-outs that look alike come from different tables or passages of the source.
# Assays:
# [1] = system: scn1lab mutant zebrafish; experiment: Locomotion assay of high-velocity seizure-like swim behavior; type: in vivo, zebrafish (Danio rerio); details: for effect on seizure-like swim behavior (change in mean velocity): commercial 5-HT2BR/dopamine agonists, three concentrations; for effect on seizure-like swim behavior (change in mean velocity) / suppression of seizure-like swim behavior (change in mean velocity): 30 and 90 min exposure, threshold ≥40%; for suppression of seizure-like swim behavior (change in mean velocity): independently resynthesized compounds retested at 10, 50, 100 and 250 μM; for suppression of seizure-like swim behavior (change in mean swim velocity): initial library screen at 100 μM and 250 μM, 5 dpf larvae, threshold reduction ≥40%
# Excerpt: Zebrafish maintenance. Zebrafish were raised under standard laboratory conditions in accordance with requirements outlined in the Guide for the Care and Use of Animals (ebrary Inc., 2011) and experiments were approved by the Institutional Animal Care and Use Committee (protocol #AN108659-03). Embryos were obtained by natural spawning of scn1lab (didy^s552) heterozygous animals that had been outcrossed to TL strain. Homozygous scn1lab mutants (n=2500) have dispersed melanosomes and appear visibly darker by 3 dpf compared to WT larvae.
# Seizure monitoring. At 5 dpf individual zebrafish larvae were placed into a single well of a clear flat-bottomed 96-well microplate containing embryo media. Larvae were selected randomly as sex determination is not possible at this stage of development. All drug screening experiments were conducted in an unbiased manner by investigators blinded to the test compounds and all files coded for post hoc analysis. Microplates were placed inside the DanioVision and acclimated for 20 min at room temperature. Locomotion plots were obtained for each well at a recording epoch of 10 min using EthoVision XT software (DanioVision, Noldus Information Technology). Seizure scoring was performed using the following three-stage scale established for pentylenetetrazole-induced seizures: Stage 0, no or very little swim activity; Stage I, increased, brief bouts of swim activity; Stage II, rapid “whirlpool-like” circling swim behavior; and Stage III, paroxysmal whole-body clonus-like convulsions, and a brief loss of posture. WT fish are typically scored at Stage 0 or I. Plots were analyzed for distance travelled (in millimeters) and mean velocity (in millimeters per second). After 90 mins of drug exposure larvae were examined for toxic side-effects. Compounds that decreased or stopped the larva heartbeat, or reduced or eliminated the escape response when touched, were considered toxic.
# Statistics. Data are presented as the mean±standard error of the mean (SEM), unless otherwise stated. For behavior analysis, the threshold for a change in mean swim velocity ≥40% (>1.5×SD of 250 control treated scn1lab) is considered significant. For comparison between more than two groups one-way ANOVA analysis was used. […] Differences considered statistically significant are indicated with asterisks (*P<0.05; **P<0.01).
# [2] = molecular target: T1, human 5-HT2AR (Homo sapiens, UniProt P28223); details: read-out: binding affinity (Ki) 5-HT2A / 5-HT2AR, cited from earlier work
# T1 construct: expressed in transfected cells
# T1 sequence (P28223 whole entry): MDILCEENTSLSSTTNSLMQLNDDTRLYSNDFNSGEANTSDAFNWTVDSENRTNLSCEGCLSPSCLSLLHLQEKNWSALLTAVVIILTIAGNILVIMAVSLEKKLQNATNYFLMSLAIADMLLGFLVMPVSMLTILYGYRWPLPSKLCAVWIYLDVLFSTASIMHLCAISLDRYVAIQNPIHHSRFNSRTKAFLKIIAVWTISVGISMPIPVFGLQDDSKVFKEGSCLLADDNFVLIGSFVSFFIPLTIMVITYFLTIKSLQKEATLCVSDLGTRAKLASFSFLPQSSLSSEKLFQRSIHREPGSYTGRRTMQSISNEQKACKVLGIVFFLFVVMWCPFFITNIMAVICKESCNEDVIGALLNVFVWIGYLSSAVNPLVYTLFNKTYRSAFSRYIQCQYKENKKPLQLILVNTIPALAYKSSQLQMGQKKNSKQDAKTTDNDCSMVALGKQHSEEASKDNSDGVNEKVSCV
# [3] = molecular target: T2, human 5-HT2BR (Homo sapiens, UniProt P41595)
# T2 construct: expressed in transfected cells
# T2 sequence (P41595 whole entry): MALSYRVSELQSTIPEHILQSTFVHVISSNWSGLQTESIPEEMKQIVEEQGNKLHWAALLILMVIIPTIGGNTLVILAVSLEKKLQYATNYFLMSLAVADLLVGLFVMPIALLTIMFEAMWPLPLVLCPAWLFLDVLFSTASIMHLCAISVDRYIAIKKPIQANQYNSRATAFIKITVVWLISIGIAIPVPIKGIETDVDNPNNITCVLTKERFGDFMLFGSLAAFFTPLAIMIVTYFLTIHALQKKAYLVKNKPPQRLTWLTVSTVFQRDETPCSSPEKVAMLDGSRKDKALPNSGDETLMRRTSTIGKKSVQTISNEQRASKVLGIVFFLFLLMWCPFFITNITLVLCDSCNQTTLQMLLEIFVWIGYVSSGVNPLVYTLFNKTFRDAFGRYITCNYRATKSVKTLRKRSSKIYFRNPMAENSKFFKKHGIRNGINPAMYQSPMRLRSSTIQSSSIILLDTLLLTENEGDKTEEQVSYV
# [4] = molecular target: T3, human 5-HT2CR (Homo sapiens, UniProt P28335)
# T3 construct: expressed in transfected cells
# T3 sequence (P28335 33-458): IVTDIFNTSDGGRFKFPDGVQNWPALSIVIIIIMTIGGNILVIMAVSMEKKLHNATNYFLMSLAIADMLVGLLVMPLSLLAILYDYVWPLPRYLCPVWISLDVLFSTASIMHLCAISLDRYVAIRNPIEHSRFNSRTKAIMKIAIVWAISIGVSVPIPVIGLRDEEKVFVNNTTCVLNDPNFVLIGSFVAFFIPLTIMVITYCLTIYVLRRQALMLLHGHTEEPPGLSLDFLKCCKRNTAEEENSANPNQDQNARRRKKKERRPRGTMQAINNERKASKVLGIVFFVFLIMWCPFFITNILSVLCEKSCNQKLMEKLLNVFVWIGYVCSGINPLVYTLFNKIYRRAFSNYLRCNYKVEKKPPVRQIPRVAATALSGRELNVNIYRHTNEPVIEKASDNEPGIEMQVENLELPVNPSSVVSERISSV
# [5] = molecular target: T1, human 5-HT2AR; experiment: biochemical; type: binding
# Method: (§1) Receptor Binding Assays. In vitro binding assay and Ki data were performed by the US National Institute of Mental Health Psychoactive Drug Screening Program (NIMH PDSP). Drugs were screened against recombinant, stably expressed human 5-HT2AR, 5-HT2BR, 5-HT2CR and H1. For specific binding assays please refer to detailed procedures at https://pdspdb.unc.edu/pdspWeb/ (Besnard, J. et al., Nature, 492, 215-220, 2012).
# [6] = molecular target: T2, human 5-HT2BR; experiment: biochemical; type: binding; details: for Ki: read-out: binding affinity (Ki) 5-HT2BR; for specificity / selectivity for 5-HT2BR over other 5-HT2R subtypes: radioligand binding
# Method: as §1
# [7] = molecular target: T3, human 5-HT2CR; experiment: Radioligand binding assay (NIMH PDSP), 5-HT2CR
# Method: as §1
# [8] = molecular target: human H1 receptor (Homo sapiens, UniProt P35367); experiment: Radioligand binding assay (NIMH PDSP), H1; set-up: expressed in transfected cells; details: read-out: binding affinity (Ki) H1
# Chain of human H1 receptor (P35367 whole entry): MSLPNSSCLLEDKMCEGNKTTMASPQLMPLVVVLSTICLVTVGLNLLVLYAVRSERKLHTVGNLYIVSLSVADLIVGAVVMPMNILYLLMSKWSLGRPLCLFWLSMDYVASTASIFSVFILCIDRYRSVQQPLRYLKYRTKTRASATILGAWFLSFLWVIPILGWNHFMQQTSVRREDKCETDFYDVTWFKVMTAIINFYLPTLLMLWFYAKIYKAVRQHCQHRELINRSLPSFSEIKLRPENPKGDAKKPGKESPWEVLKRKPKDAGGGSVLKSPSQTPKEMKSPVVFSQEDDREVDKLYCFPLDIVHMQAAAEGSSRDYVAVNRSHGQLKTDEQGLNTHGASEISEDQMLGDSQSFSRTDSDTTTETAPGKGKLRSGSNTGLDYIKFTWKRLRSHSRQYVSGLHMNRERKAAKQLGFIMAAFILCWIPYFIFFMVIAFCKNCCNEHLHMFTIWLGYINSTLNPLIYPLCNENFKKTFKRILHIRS
# Method: as §1
# [9] = system: scn1lab mutant zebrafish; experiment: Local field potential (LFP) electrophysiology of electrographic seizure events; type: in vivo, zebrafish (Danio rerio); details: 100 μM; 10 min LFP recording, 5 dpf larvae
# Method: For electrophysiology studies, zebrafish larvae were anesthetized with cold and immobilized in 1.2% agarose; local field potential (LFP) recordings were obtained from forebrain or optic tectum structures using a single-electrode approach, as previously described (Baraban, S. C. et al., Neuroscience, 131, 759-768, 2005). Agarose-embedded LFP recording sessions of 10 min were obtained at 1 kHz. Epileptiform events were identified post hoc and defined as multi-spike or poly-spike upward or downward membrane deflections greater than 3× baseline noise level and 150-250 ms in duration (interictal-like) or greater than 5× baseline noise, multi-spike and >500 ms in duration (ictal-like); both events were counted using threshold detection settings in Clampfit (Molecular Devices; Sunnyvale, Calif.). During electrophysiology experiments larvae were continuously monitored for blood flow and heart rate using an Axiocam digital camera at video frame rate.
# Monitoring electrographic brain activity to confirm seizure suppression is an essential assay to eliminate false positives from behavioral testing (Griffin, A. et al., Frontiers in Pharmacology, 9, 2018). By placing a microelectrode into a visually identified brain region of an agar-immobilized zebrafish larval, stable local field potential (LFP) recordings can be monitored for several hours (Baraban, S. C. et al., Nat Commun, 4, 2410, 2013). At 5 dpf LFP recordings of scn1Lab zebrafish larvae show an average of 250 abnormal electrographic seizure events during a 10 min recording epoch.
# [10] = known drugs and commercial compounds
# [11] = known drugs and commercial compounds; read-out: binding affinity (Ki) 5-HT2B / 5-HT2BR; cited from earlier work
# [12] = known drugs and commercial compounds; read-out: binding affinity (Ki) 5-HT2C / 5-HT2CR; cited from earlier work
# [13] = read-out: binding affinity (Ki) 5-HT2AR
# [14] = clemizole analogs, recombinant human receptor
# [15] = clemizole analogs, recombinant human receptor, read-out: binding affinity (Ki) 5-HT2CR
# [16] = read-out: binding affinity (Ki) 5-HT2CR
# [17] = clemizole analogs, recombinant human receptor, read-out: binding affinity (Ki) 5-HT2AR
smiles,measurement,setting,value
"CC(N)Cc1c[nH]c2ccc(OCc3cccs3)cc12 (stereo not shown) [BW-723C86, reference compound]",effect on seizure-like swim behavior (change in mean velocity),[1],"showed a decrease in seizure-like swim behavior, but also failed to reach our significance threshold"
"Clc1cccc(COc2cncc(N3CCNCC3)n2)c1 [CP-809,101]",effect on seizure-like swim behavior (change in mean velocity),[1],biphasic response
same,Ki,[2]; [10],1.6 nM
same,Ki,[3]; [11],6 nM
same,Ki,[4]; [12],64 nM
"Clc1ccc(Cn2c(CC3CCCC3)nc3ccccc32)cc1 [Compound 1, 1-[(4-Chlorophenyl)methyl]-2-(cyclopentylmethyl)-1H-benzimidazole]",Ki,[5]; [13],> 10000 nM
same,Ki,[6]; [14],501 nM
same,Ki,[7]; [15],2730 nM
c1ccc(Cn2c(CN3CCCC3)nc3ccccc32)cc1 [Compound 3],Ki,[5]; [13],327 nM
same,Ki,[6],83 nM
same,Ki,[7]; [16],292 nM
same,Ki,[8],4.8 nM
"c1ccc2c(c1)nc(CN1CCCC1)n2CC1CCCCC1 [Compound 4, 1-(Cyclohexylmethyl)-2-[(pyrrolidin-1-yl)methyl]-1H-benzimidazole]",Ki,[5],> 10000 nM
same,Ki,[6]; [14],612 nM
same,specificity / selectivity for 5-HT2BR over other 5-HT2R subtypes,[6],specificity for 5-HT2BR over other 5-HT2R subtypes; also recorded: significant preference for 5-HT2BR
same,Ki,[7],> 10000 nM
same,suppression of seizure-like swim behavior (change in mean velocity),[1],reduced the high-velocity seizure-like swim behavior
same,suppression of seizure-like swim behavior (change in mean swim velocity),[1],effective in suppressing
same,frequency of electrographic seizure (epileptiform) events,[9],significant changes in the frequency of events; also recorded: significant suppression of electrographic seizure activity
same,Ki,[8]; [14],153 nM
CCCn1c(CN2CCCC2)nc2ccccc21 [Compound 5],Ki,[5]; [13],> 10000 nM
same,specificity / selectivity for 5-HT2BR over other 5-HT2R subtypes,[6],specific binding for 5HT2BR; also recorded: selectivity for 5-HT2BR
same,Ki,[6],219 nM
same,Ki,[7]; [16],> 10000 nM
same,suppression of seizure-like swim behavior (change in mean velocity),[1],no significant effect on the high-speed seizure-like behavior; also recorded: no significant effect on the swim behavior
same,suppression of seizure-like swim behavior (change in mean swim velocity),[1],no significant effect on swim behavior
same,Ki,[8],362 nM
Fc1ccc(Cn2c(CN3CCCC3)nc3ccccc32)cc1 [Compound 7],Ki,[5]; [13],15 nM
same,Ki,[6],46 nM
same,Ki,[7]; [16],345 nM
same,Ki,[8],1 nM
"Clc1ccc(Cn2c(CN3CCCC3)cc3ccccc32)cc1 [Compound 11, 1-[(4-Chlorophenyl)methyl]-2-[(pyrrolidin-1-yl)methyl]-1H-indole]",Ki,[5]; [17],631 nM
same,Ki,[6]; [14],134 nM
same,Ki,[7]; [15],248 nM
same,Ki,[8]; [14],6.4 nM
Nc1ccc(Cn2c(CN3CCCC3)nc3ccccc32)cc1 [Compound 14],Ki,[5]; [13],> 10000 nM
same,specificity / selectivity for 5-HT2BR over other 5-HT2R subtypes,[6],specific binding for 5HT2BR; also recorded: selectivity for 5-HT2BR
same,Ki,[6],606 nM
same,Ki,[7]; [16],> 10000 nM
same,suppression of seizure-like swim behavior (change in mean velocity),[1],no significant effect on the high-speed seizure-like behavior; also recorded: no significant effect on the swim behavior
same,suppression of seizure-like swim behavior (change in mean swim velocity),[1],no significant effect on swim behavior
same,Ki,[8],27 nM
Clc1ccc(Cn2c(CN3CCCCC3)nc3ccccc32)cc1 [Compound 22],Ki,[5]; [13],623 nM
same,Ki,[6],306 nM
same,Ki,[7]; [16],4580 nM
same,Ki,[8],8.5 nM
"CCN(CC)Cc1nc2ccccc2n1Cc1ccc(Cl)cc1 [Compound 24, ({1-[(4-Chlorophenyl)methyl]-1H-1,3-benzodiazol-2-yl}methyl)diethylamine]",Ki,[5]; [17],1260 nM
same,Ki,[6]; [14],115 nM
same,Ki,[7]; [15],1410 nM
same,Ki,[8]; [14],3.7 nM
CN1CCN(Cc2nc3ccccc3n2Cc2ccc(Cl)cc2)CC1 [Compound 26],Ki,[5]; [13],316 nM
same,Ki,[6],20 nM
same,Ki,[7]; [16],313 nM
same,Ki,[8],1.2 nM
Clc1ccc(Cn2c(CN3CCSC3)nc3ccccc32)cc1 [Compound 28],Ki,[5]; [13],> 10000 nM
same,Ki,[6],464 nM
same,Ki,[7]; [16],1080 nM
same,Ki,[8],44 nM
C[C@H](N)Cn1ccc2cc(F)c(Cl)cc21 [Ro 60-0175],effect on seizure-like swim behavior (change in mean velocity),[1],consistently decreased mean velocity and was borderline effective after 90 mins of drug exposure
same,Ki,[2],37.2 nM
same,Ki,[3]; [11],4.3 nM
same,Ki,[4]; [12],9.1 nM
CN(C)C1CCc2cc(O)c(O)cc2C1 (stereo not shown) [TL-99],effect on seizure-like swim behavior (change in mean velocity),[1],failed to elicit any behavioral effect
same,Ki,[2]; [10],2340 nM
same,Ki,[3]; [11],2040 nM
same,Ki,[4]; [12],2290 nM
"CN1CCc2cccc3c2[C@H]1Cc1ccc(O)c(O)c1-3 [apomorphine, reference compound]",effect on seizure-like swim behavior (change in mean velocity),[1],significantly increased mean swim velocity
C=CCN1C[C@H](C(=O)N(CCCN(C)C)C(=O)NCC)C[C@@H]2c3cccc4[nH]cc(c34)C[C@H]21 [cabergoline],effect on convulsive swim behavior,[1]; 250 μM,significantly reduced convulsive swim-behavior
same,Ki,[2]; [10],6.17 nM
same,Ki,[3]; [11],1.2 nM
same,Ki,[4]; [12],692 nM
"Cl.Clc1cccc(N2CCNCC2)c1 [mCPP, 1-(3-Chlorophenyl)piperazine hydrochloride, reference compound]",effect on seizure-like swim behavior (change in mean velocity),[1],biphasic response
CC(N)Cc1cccc(C(F)(F)F)c1 (stereo not shown) [norfenfluramine],effect on seizure-like swim behavior (change in mean velocity),[1],suppressed convulsive swim behaviors in a concentration-dependent manner
same,Ki,[2],194 nM
same,Ki,[3]; read-out: binding affinity (Ki) 5-HT2B / 5-HT2BR; known drugs and commercial compounds; cited from earlier work,18 nM
same,Ki,[4]; read-out: binding affinity (Ki) 5-HT2C / 5-HT2CR; known drugs and commercial compounds; cited from earlier work,306 nM
